Experimental data from PubChem BioAssay AID588735 (Vanderbilt Specialized Chemistry Center, 2011).

Target: Metabotropic glutamate receptor 5 (Rattus norvegicus) (UniProt P31424)
Assay: PubChem AID 588735
Settings: HEK293 rat mGluR5, calcium fluorescence, at 10 µM, stronger effect = higher value

Chain of Metabotropic glutamate receptor 5 (Rattus norvegicus) (P31424 whole entry, looked up): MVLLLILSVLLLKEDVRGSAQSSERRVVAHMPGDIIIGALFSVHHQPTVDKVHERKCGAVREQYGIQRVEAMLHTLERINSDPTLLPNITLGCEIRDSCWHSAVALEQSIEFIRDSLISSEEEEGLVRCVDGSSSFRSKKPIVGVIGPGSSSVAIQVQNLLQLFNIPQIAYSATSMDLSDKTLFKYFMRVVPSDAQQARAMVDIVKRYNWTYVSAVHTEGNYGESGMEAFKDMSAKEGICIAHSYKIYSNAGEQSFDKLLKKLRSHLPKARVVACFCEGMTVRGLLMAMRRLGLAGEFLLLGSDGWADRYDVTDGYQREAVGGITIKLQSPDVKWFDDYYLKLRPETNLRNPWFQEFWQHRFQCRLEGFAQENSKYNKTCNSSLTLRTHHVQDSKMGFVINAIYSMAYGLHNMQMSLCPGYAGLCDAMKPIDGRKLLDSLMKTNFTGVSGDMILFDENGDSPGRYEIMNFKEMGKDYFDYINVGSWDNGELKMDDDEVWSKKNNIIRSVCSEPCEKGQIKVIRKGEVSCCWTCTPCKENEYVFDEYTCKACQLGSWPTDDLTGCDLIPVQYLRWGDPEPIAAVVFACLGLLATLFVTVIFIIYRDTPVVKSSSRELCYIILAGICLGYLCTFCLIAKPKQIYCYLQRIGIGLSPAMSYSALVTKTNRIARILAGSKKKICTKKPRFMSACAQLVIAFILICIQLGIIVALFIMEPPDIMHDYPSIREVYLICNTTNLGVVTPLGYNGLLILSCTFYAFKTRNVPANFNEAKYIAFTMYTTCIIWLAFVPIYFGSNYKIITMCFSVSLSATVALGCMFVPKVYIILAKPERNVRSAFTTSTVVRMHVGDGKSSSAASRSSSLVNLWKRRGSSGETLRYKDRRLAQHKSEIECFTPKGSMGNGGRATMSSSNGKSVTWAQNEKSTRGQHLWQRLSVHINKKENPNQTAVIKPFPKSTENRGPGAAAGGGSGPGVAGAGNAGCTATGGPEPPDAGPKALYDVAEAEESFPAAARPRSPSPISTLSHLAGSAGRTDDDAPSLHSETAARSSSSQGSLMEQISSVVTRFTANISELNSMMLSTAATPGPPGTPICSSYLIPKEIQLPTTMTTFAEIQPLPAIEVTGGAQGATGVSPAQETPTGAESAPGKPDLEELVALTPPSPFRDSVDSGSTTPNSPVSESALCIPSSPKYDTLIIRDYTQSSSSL

C[C@@H](NC(=O)c1ccc(C#Cc2cccc(F)c2)cn1)C(C)(C)O
fold shift: 4.6 | Emax (glutamate fold shift, glutamate max response with compound): 62% | Emin (glutamate fold shift, glutamate min response (ago-PAM)): 45%
